Measured values: paper PMC3948353 (Chemistry & biology, 2013)

What was measured:
[1] = molecular target: T1, arylacetamide deacetylase-like 1 (AADACL1) (Homo sapiens, UniProt Q6PIU2); experiment: HAG hydrolysis activity in lysates of JW480-treated human platelets; type: cell-based
T1 sequence (Q6PIU2 1-408): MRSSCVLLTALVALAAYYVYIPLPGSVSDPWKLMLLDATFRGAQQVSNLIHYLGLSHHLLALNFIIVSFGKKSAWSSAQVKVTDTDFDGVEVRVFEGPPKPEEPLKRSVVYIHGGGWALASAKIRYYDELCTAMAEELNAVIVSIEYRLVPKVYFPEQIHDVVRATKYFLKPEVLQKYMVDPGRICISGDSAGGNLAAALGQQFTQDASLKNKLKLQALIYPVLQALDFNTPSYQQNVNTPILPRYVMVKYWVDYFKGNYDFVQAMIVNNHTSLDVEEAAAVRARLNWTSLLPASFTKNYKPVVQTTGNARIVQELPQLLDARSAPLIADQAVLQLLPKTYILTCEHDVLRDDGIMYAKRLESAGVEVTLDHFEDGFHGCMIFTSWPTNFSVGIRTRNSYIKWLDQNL

[2] = molecular target: T1, arylacetamide deacetylase-like 1 (AADACL1); experiment: hydrolysis of exogenous HAG in human platelet lysate, blocked by JW480; type: cell-based

% inhibition at 2 μM [1]	Compound	hydrolysis of exogenous HAG in human platelet lysate, blocked by JW480 [2]
90 ± 0.56% inhibition at 2	CC(C)c1ccccc1OC(=O)NCCc1ccc2ccccc2c1 [JW480]	
	CCCCCCCCCCCCCCCCOC[C@H](CO)OC(C)=O [HAG, 1-O-hexadecyl-2-O-acetyl-sn-glycerol]	AADACL1 also hydrolyzes HAG to its corresponding monoalkylglycerol ether (C16 MAGE) in human platelets
